From patent US7423182B2, “Aminated polyamines” (University of Florida, priority 2004, dated 2008)
Read-outs that look alike come from different tables or passages of the source.

Key:
[1] = mice, three weeks after a seven day schedule; cited from earlier work
[2] = tested on: Polyamine pools in L1210 cells; assay: Effect on polyamine pools in L1210 cells; type: cell-based; details: 48 h of treatment
L1210 cells = assay: L1210 cell growth inhibition; type: cell-based; details: Mus musculus
[3] = tested on: Polyamine pools in L1210 cells; details: 48 h of treatment, cited from earlier work

For `CCNCCCCNCCCCNCCCCNCC` [DEHSPM, Diethylhomospermine], the “drug administered remaining in the liver and kidney as drug or metabolites” value [1] is listed as 35% and the “drug remaining in the animal in the form of HSPM” value [1] is listed as 90%.

In the case of `CCNCCCNCCC(N)CNCCCNCC` (stereo not shown) [6-NH2-DESPM, 6 amino-N^1,N^12-diethylspermine], the PUT ([2]; 10 µM) is reported as 39 ± 9% of untreated controls, the SPD ([2]; 10 µM) is reported as 16 ± 3% of untreated controls and the SPM ([2]; 10 µM) is reported as 54 ± 11% of untreated controls. The PUT ([2]; 50 µM) was 26 ± 1% of untreated controls, the SPD ([2]; 50 µM) was 7 ± 0% of untreated controls and the SPM ([2]; 50 µM) was 32 ± 1% of untreated controls. For the same compound, the IC50 (L1210 cells; 48 h, read-out: IC50 48 h) was 8 µM and the IC50 (L1210 cells; 96 h, read-out: IC50 96 h) was 0.4 µM.

For `FC(F)(F)CNCCCNCCCCNCCCNCC(F)(F)F` [FDESPM], the PUT ([3]; 100 µM) is listed as 100% of untreated controls, the SPD ([3]; 100 µM) is listed as 103% of untreated controls and the SPM ([3]; 100 µM) is listed as 108% of untreated controls.

For `CCNCCCNCCCCNCCCNCC` [DESPM], the PUT ([3]; 30 µM) is given as 0% of untreated controls, the SPD ([3]; 30 µM) is given as 0% of untreated controls and the SPM ([3]; 30 µM) is given as 12% of untreated controls. For the same compound, the PUT ([3]; 150 µM) was 0% of untreated controls, the SPD ([3]; 150 µM) was 0% of untreated controls and the SPM ([3]; 150 µM) was 14% of untreated controls.
